# Experimental data from ChEMBL document CHEMBL5356966, “A dual mechanism with H2S inhibition and membrane damage of morusin from Morus alba Linn. against MDR-MRSA” (2024).
# Active and inactive are the calls of the source. The rule behind the calls is not given here.
# What was measured:
# Staphylococcus aureus [1] = experiment: Antibacterial activity methicillin-resistant Staphylococcus aureus 003 assessed as inhibition of H2S production at 50 uM; type: functional
# Enterococcus = experiment: Antibacterial activity vancomycin-resistant Enterococcus assessed as inhibition of bacterial growth incubated for 24 hrs by CLSI based analysis; type: functional
# Staphylococcus aureus [2] = experiment: Bactericidal activity against Staphylococcus aureus at 4 times MIC measured after 24 hrs by time kill assay; type: functional, organism-based
# Staphylococcus aureus [3] = experiment: Bactericidal activity against methicilin-resistant Staphylococcus aureus 003 at 4 times MIC measured after 24 hrs by time kill assay; type: functional, organism-based
# Cell membrane = experiment: Disruption of bacterial cell membrane in methicilin-resistant Staphylococcus aureus 003 assessed as increase in red fluorescence intensity incubated for 1 hr by DAPI/PI staning based confocal laser microscopic analysis
# Staphylococcus aureus [4] = experiment: In vivo antibacterial activity against methicilin-resistant Staphylococcus aureus infected in ICR mouse skin infection model assessed as wound area at 5 mg/kg, ip preadministered with compound for 24 hrs followed by bacterial infection and measured after 3 days; type: functional; conditions: time 96 hrs
compound,measurement,setting,value
CCc1ccc(CCOc2ccc(CC3SC(=O)NC3=O)cc2)nc1 (stereo unspecified) [PIOGLITAZONE],inhibition at 50 µM,Staphylococcus aureus [1],54%
CN[C@H](CC(C)C)C(=O)N[C@H]1C(=O)N[C@@H](CC(N)=O)C(=O)N[C@H]2C(=O)N[C@H]3C(=O)N[C@H](C(=O)N[C@H](C(=O)O)c4cc(O)cc(O)c4-c4cc3ccc4O)[C@H](O)c3ccc(c(Cl)c3)Oc3cc2cc(c3O[C@@H]2O[C@H](CO)[C@@H](O)[C@H](O)[C@H]2O[C@H]2C[C@](C)(N)[C@H](O)[C@H](C)O2)Oc2ccc(cc2Cl)[C@H]1O [VANCOMYCIN],MIC,Enterococcus,64 µg/mL
same,Activity,Staphylococcus aureus [2],inactive
same,Activity,Staphylococcus aureus [3],inactive
same,Activity,Cell membrane,Active
same,Activity,Staphylococcus aureus [4],0.16 cm2
